Source: US9629848B2, “Compounds that modulate autoimmunity and methods of using the same” (The Regents of the University of Colorado, a body corporate, priority 2011, dated 2017)

How the values were obtained:
[1] = system: isolated whole islets from an adult non-diabetic NOD mouse; experiment: TCR response to isolated whole islets; type: cell-based; settings: islets containing beta cells
Protocol: (§1) The ability of the small molecules to block endogenous insulin presentation was tested. Incubation of whole insulin with I-A^g^7 containing splenocytes activates 5KC cells (T cell hybridoma lacking endogenous TCRα and β chains) transduced with a 4-8 TCR. […] To document direct effects of these small molecules on inhibiting peptide binding to I-A^g^7, an I-A^g^7 protein construct was expressed in baculovirus with a linked peptide. The flexible linker contained a thrombin cleavage site, allowing for thrombin cleavage of the linker and release of the peptide.

[2] = system: I-A^g^7 complexed to insulin peptides; experiment: Tetramer staining, I-A^g^7 complexed to insulin peptides; type: cell-based, mouse
Text: (§2) This molecule inhibited the insulin presentation to T cells capable of causing diabetes in mice and T cells responding to insulin in humans. […] Specificity was shown by using the molecule to inhibit tetramer binding (I-A^g^7 complexed to insulin peptides) to T cells.

[3] = system: DQ8 restricted T cell receptor (TCR) transfectomas; experiment: Ex vivo biomarker assay in DQ8 humanized mice, duration and oral route
[4] = system: human T cell receptor recognizing insulin B:9-23 presented by human DQ8; experiment: Inhibition of human T cell receptor recognizing insulin B:9-23 presented by human DQ8; type: cell-based
Text: Using a TCR sequence obtained from a T cell line generated from the peripheral blood of a diabetic individual with DQ8 molecule, a TCR was identified that is DQ8 restricted and responds to the insulin B:9-23 peptide.
Molecules predicted to occupy pockets 1 and 9 of the human DQ8 peptide binding groove were identified using in silico molecular docking program. The top scoring compounds for each pocket were screened for their ability to inhibit anti-B:9-23 T cell responses. FIGS. 9A and 9B represent the results of the T cell stimulation assay for compounds occupying pocket 1 and pocket 9 of the human DQ8 peptide binding groove, respectively.

[5] = system: 5KC cells transduced with a 4-8 TCR; experiment: Endogenous insulin presentation: whole insulin with I-A^g^7 splenocytes and 4-8 TCR transduced 5KC cells; type: cell-based, mouse
Protocol: as §1

[6] = molecular target: DQ8 (Homo sapiens, UniProt P01909+P01920, A209T/A45G/C70Q/D89A/DUP78-78/E183D/E77G/F237L/G63E/H199R/I129T/K197E/L178F/L74F/L98V/Q57E/Q76R/S185I/S97I/T217I/T49S/V73L/Y58L); experiment: Competitive binding assay B:9-23 to DQ8
[7] = system: NOD mice; experiment: Insulin autoantibody production and diabetes onset in NOD mice; type: in vivo, mouse; settings: 20 mg/kg IP daily from 4 to 12 weeks of age
Protocol: To test the efficacy of this molecule in vivo, Jackson NOD mice were treated with TATD at a dose of 20 mg/kg IP daily starting at 4 weeks of age. Treatment ceased at 12 weeks of age. Insulin autoantibody (IAA) was measured before treatment at 8, 10, 12, 16, 20, and 24 weeks of age.

[8] = molecular target: T1, I-A^b complexed to a 3K peptide (Mus musculus, UniProt P14434+P14483); experiment: Tetramer staining, I-A^b complexed to a 3K peptide; type: cell-based; settings: specificity control
T1 sequence (P14434 24-218 limits assumed): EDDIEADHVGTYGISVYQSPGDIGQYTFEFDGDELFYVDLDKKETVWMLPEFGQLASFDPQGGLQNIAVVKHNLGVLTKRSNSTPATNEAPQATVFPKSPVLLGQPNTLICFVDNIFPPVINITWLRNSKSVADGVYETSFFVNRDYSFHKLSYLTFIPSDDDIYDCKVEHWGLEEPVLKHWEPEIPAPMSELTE
T1 sequence (P14483 28-226 limits assumed): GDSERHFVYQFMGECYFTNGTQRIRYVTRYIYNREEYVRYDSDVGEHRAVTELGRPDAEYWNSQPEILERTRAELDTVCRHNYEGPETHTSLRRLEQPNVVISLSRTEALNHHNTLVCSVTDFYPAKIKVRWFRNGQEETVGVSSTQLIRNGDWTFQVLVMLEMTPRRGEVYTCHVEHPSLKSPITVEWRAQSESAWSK

[9] = system: T cell response to the autoantigen, amino acids 9-23 in the B chain of insulin; experiment: Inhibition of T cell response to insulin B chain amino acids 9-23; type: cell-based, mouse
Text: as §2

[10] = system: Anti-CD3 stimulation; experiment: Anti-CD3 stimulation control in ex vivo biomarker assay; design: species or system DQ8 humanized mice; settings: mouse
Protocol: The IL-2 response from the TCR transfectomas using splenocytes harvested within 2 hours from TATD treated mice was abrogated compared to PBS treated controls (FIGS. 13A and 13B). Anti-CD3 stimulation was not inhibited in the presence of TATD.

[11] = system: 489 TCR transfectoma, deamidated α-gliadin; experiment: Ex vivo biomarker assay in DQ8 humanized mice, 489 TCR transfectoma with deamidated α-gliadin; settings: pooled PBMCs from treated mice
Protocol: (§3) TATD was further evaluated in humanized DQ8 mice. These mice are on a NOD background, I-A null, and contain transgenes for DQ8 and human CD4 (NOD, I-A^g^7 null, DQ8 transgene, Rag KO). TATD was used to develop a rapid ex vivo biomarker assay to monitor the effects of small molecules on antigen presentation in DQ8 humanized mice. To identify a biomarker, mice were treated in vivo with TATD (either by intraperitoneal injection or gastric gavage) and isolated splenocytes or peripheral blood mononuclear cells (PBMCs) were used to monitor antigen presentation to DQ8 restricted T cell receptor (TCR) transfectomas.
(§4) Using this biomarker assay, DQ8 humanized mice were treated with a single intraperitoneal dose of TATD (20 mg/kg) and then sacrificed 2 hours later. Splenocytes from treated mice were cultured with the insulin B:13-23 antigen in the presence of clone 5 TCR transfectomas, or deamidated α-gliadin in the presence of the 489 TCR transfectoma. No TATD was added in vitro to the stimulation assays. Control mice received IP injections of PBS (the vehicle in which TATD is dissolved).

[12] = system: I-A^g^7; experiment: Soluble binding assay, B:9-23 peptide to empty I-A^g^7; design: species or system mouse; settings: dose dependent
[13] = system: clone 5 TCR transfectomas, insulin B:13-23 antigen; experiment: Ex vivo biomarker assay in DQ8 humanized mice, clone 5 TCR transfectomas with insulin B:13-23
Protocol: as §3, §4

[14] = system: BDC 2.5 T cell hybridoma; experiment: Chromogranin peptide mimotope presentation by I-A^g^7 to BDC 2.5 T cell hybridoma; type: cell-based, mouse; settings: specificity test

SMILES: C1CN2CN3CCN(CN1C3)C2 [TATD, 1,3,6,8-tetraazatricyclo (4.4.1.1(3,8)) dodecane]
- Inhibition of TCR response to whole islets [1]: able to inhibit endogenous antigen presentation
- Tetramer staining of T cells recognizing insulin B:9-23 presented by I-A^g^7 [2]: inhibited tetramer staining
- Blocking IL-2 production from the TCR transfectomas ([3]; gastric gavage): effective at blocking IL-2 production
- Oral absorption ([3]; gastric gavage): orally absorbed
- Duration of effects on antigen presentation ([3]; single dose): 7 days
- Concentration inhibiting antigen presentation by human DQ8 to T cells involved in type 1 diabetes [4]: low nanomolar
- Inhibition of endogenous antigen presentation of whole insulin by antigen presenting cells [5]: able to inhibit endogenous antigen presentation
- Block of peptide binding to DQ8 [6]: block peptide binding
- IC50 [6]: 4.5e-06 µM
- Diabetes onset [7]: prevents diabetes onset
- Insulin autoantibody (IAA) formation ([7]; IAA up to 24 weeks): blocks IAA formation
- T cell staining with I-A^b / 3K peptide tetramer [8]: did not alter T cell staining
- Concentration inhibiting T cell response to insulin B:9-23 [9]: low nanomolar
- Anti-CD3 stimulation [10]: not inhibited
- 489 TCR transfectoma response to deamidated α-gliadin presented by PBMCs [11]: the same response is seen
- Inhibition of B:9-23 peptide binding to I-A^g^7 [12]: block peptide binding
- Clone 5 response to insulin B:13-23 presented by PBMCs ([13]; pooled PBMCs from treated mice): blocked
- IL-2 response of clone 5 TCR transfectomas, splenocytes ([13]; single 20 mg/kg IP dose, splenocytes harvested within 2 hours, vs PBS controls): abrogated

SMILES: O=[PH](O)C(O)c1ccccc1 (stereo not shown) [p6:17]
- Inhibition of chromogranin presentation to the BDC 2.5 hybridoma [14]: no inhibition
- IC50 [6]: > 100 µM

SMILES: CN(C)C(Cl)(N(C)C)C(Cl)(N(C)C)N(C)C [p6:18]
- IC50 for blocking T cell stimulation from endogenously processed insulin ([5]; whole insulin with I-A^g^7 containing splenocytes): low nanomolar
- IC50 [6]: > 100 µM
